Reference: paper PMC11211329, “Phage-encoded bismuth bicycles enable instant access to targeted bioactive peptides” (Communications Chemistry, 2024)

Tested on: naïve three-cysteine phage library
Assay: Plaque-forming assay, effect of bicyclisation reagent on phage infectivity
Format: cell-based, M13 bacteriophage
Conditions: 120 μM, 5 min exposure
Procedure: bismuth(III). The reaction mixture was vortexed briefly once more and incubated at room […]
Modification with bismuth tripotassium dicitrate (gastrodenol)
Bismuth tripotassium dicitrate (gastrodenol) in ultrapure sterile water (50 mM) was added to the reduced phage solution while gently vortexing to a final volume of 1040 μL to obtain a final concentration of 120 μM bismuth(III). The reaction mixture was vortexed briefly once more and incubated at room temperature for 5 min.
Modification with sodium arsenite (NaAsO2)
Sodium arsenite (NaAsO2) in ultrapure sterile water (50 mM) was added to the reduced phage solution while gently vortexing to a final volume of 1040 μL to obtain a final concentration of 120 μM arsenic(III). The reaction mixture was vortexed briefly once more and incubated at room […]
An overnight culture of Escherichia coli ER2738 (New England Biolabs, E4104, USA), a strain commonly used for phage display, was prepared by growing the bacteria in tetracycline containing LB media at 37 °C for 16 h at 220 rpm. Aliquots of 3 mL of melted top agar were transferred into sterile polystyrene tubes (Corning, 352051, USA) and heated up to 50 °C on a dry bath (Thermo Fisher, 88870004, USA) until ready to use. A dilution series of the phage library was prepared as required, at a final volume of 1 mL, whereby a 10 μL portion of each phage dilution was added to 200 μL of the bacterial overnight culture, incubated for 5 min and transferred fully into a tube containing 3 mL top agar. The contents in the tube were gently mixed by vortexing and poured entirely on a warm LB/IPTG/X-Gal plate, allowing the top agar-mixture to spread evenly across the plate. The plate was allowed to solidify and left in an incubator oven overnight at 37 °C. The number of plaques was counted by selecting plates with plaques separated at a countable level.
The concentration of the original solution was then calculated in pfu/mL using the following equation (Supplementary Equation 1).
Supplementary Equation 1.
concentration of original phage library solution = number of plaques ∙ dilution factor [pfu/mL]
Effect of bicyclisation reagent on phage infectivity
To evaluate the impact of bismuth(III) and arsenic(III) on the infectivity of the naïve three-cysteine phage library, phage titres were measured both before and after the addition of the metal(loid).
Accordingly, for each modification experiment three 1000 μL aliquots of ~1011 pfu/mL of freshly amplified naïve phage library in PBS were set aside and subjected to a plaque-forming assay to determine their titre. Next, these library aliquots were individually exposed to either 120 μM bismuth(III) from BiBr3 (50 mM DMSO) or gastrodenol (50 mM in ultrapure water) or 120 μM arsenic(III) from NaAsO2 (50 mM in ultrapure water), with each reagent being used for the modification of three library aliquots. During addition of the thiophilic element, the reaction mixtures were briefly vortexed and incubated at room temperature for 5 min. Excess reagent was removed from the modified phage library solution using spin desalting columns (Thermo Fisher, 89883, USA) at 2000 × g for 2.5 min. The titre of the modified phage solution was subsequently determined using the plaque-forming assay, which was also performed in triplicate. A parallel experiment was conducted using the addition of PBS as the control. Phage titres before and after their respective modification were plotted in GraphPad Prism 10 (Dotmatics, USA) […]
Supplementary Fig. 20. […]

SMILES: [Bi+3] [Bi(III)]
- effect on phage infectivity: uncompromised

SMILES: [Br][Bi]([Br])[Br] [BiBr3, bismuth tribromide]
- effect on phage infectivity: no relevant negative effect

SMILES: O=[As][O-].[Na+] [NaAsO2, sodium arsenite]
- effect on phage infectivity: no relevant negative effect
- effect on phage infectivity (listed as As(III)): uncompromised

SMILES: O=C([O-])CC(O)(CC(=O)[O-])C(=O)[O-].O=C([O-])CC(O)(CC(=O)[O-])C(=O)[O-].[Bi+3].[K+].[K+].[K+] [gastrodenol, bismuth tripotassium dicitrate]
- effect on phage infectivity: no relevant negative effect
